Experimental data taken from patent US7566712B2, “Biaryl piperazinyl-pyridine analogues” (Neurogen Corporation, priority 2003, dated 2009).
pIC50: −log10 of the molar value.

The compounds below were run against T1, human capsaicin receptor (Homo sapiens, UniProt Q8NER1) (assay: Calcium mobilization assay, determination of antagonist activity (Example 6)). Settings: Table II; determined as described in Example 6 (antagonist activity); "*" = 1 micromolar or less.
T1 construct: pBK-CMV expression construct encoding the full length human capsaicin receptor; expressed in transfected cells
Type: cell-based
Outline: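 Antagonism measured as inhibition of capsaicin-evoked (final concentration = EC50, from an 8-point 1 nM–3 μM curve) Fluo-3 calcium signal in stable hVR1-HEK293 cells. Test compounds at 1–5 μM final, 0.5–6 h dark preincubation at room temperature. IC50 = concentration giving 50% reduction versus agonist-only response.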

T1 sequence (Q8NER1 whole entry): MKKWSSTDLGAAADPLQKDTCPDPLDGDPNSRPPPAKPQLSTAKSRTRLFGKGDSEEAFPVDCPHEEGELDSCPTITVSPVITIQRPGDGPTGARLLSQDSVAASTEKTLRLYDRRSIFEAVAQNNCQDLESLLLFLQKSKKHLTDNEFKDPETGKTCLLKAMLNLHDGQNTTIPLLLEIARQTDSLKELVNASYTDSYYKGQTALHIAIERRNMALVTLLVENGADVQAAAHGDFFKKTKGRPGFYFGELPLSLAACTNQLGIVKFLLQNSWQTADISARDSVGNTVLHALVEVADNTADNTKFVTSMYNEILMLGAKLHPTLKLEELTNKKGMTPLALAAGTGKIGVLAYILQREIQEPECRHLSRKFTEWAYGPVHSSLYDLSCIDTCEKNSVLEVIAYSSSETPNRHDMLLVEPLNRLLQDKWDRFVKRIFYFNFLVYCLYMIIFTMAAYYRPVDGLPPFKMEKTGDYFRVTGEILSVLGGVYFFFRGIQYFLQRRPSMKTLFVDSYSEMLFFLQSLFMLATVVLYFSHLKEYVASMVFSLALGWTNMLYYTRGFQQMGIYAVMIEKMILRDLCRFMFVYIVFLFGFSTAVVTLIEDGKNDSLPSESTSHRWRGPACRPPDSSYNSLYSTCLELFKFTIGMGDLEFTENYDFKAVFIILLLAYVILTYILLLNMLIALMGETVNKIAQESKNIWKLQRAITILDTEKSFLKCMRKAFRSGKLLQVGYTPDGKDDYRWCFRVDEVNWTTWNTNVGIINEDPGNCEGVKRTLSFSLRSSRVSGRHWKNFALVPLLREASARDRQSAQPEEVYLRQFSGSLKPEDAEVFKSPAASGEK

pIC50, ≥ 6.00:
CCOC(=O)C1CCCN(c2nc(-c3ccc(F)c(Cl)c3)cc(N3CCN(c4ncccc4C(F)(F)F)CC3)n2)C1 (centres unmarked) [Example 798, ethyl 1-(4-(3-chloro-4-fluorophenyl)-6-{4-[3-(trifluoromethyl)pyridin-2-yl]piperazin-1-yl}pyrimidin-2-yl)piperidine-3-carboxylate]
O=C(O)C1CCN(c2nc(-c3ccc(F)c(Cl)c3)cc(N3CCN(c4ncccc4C(F)(F)F)CC3)n2)CC1 [Example 799, 1-(4-(3-chloro-4-fluorophenyl)-6-{4-[3-(trifluoromethyl)pyridin-2-yl]piperazin-1-yl}pyrimidin-2-yl)piperidine-4-carboxylic acid]
O=C(O)C1CCCN(c2nc(-c3ccc(F)c(Cl)c3)cc(N3CCN(c4ncccc4C(F)(F)F)CC3)n2)C1 (centres unmarked) [Example 800, 1-(4-(3-chloro-4-fluorophenyl)-6-{4-[3-(trifluoromethyl)pyridin-2-yl]piperazin-1-yl}pyrimidin-2-yl)piperidine-3-carboxylic acid]
CC1=NCCN1c1nc(-c2ccc(F)c(Cl)c2)cc(N2CCN(c3ncccc3C(F)(F)F)CC2)n1 [Example 801, 4-(3-chloro-4-fluorophenyl)-2-(2-methyl-4,5-dihydro-1H-imidazol-1-yl)-6-{4-[3-(trifluoromethyl)pyridin-2-yl]piperazin-1-yl}pyrimidine]
Cc1ccc(-c2cc(N3CCN(c4ncccc4Cl)C[C@H]3C)nc(N3CCCC3)n2)cc1F [Example 802]
Cc1ccc(-c2cc(N3CCN(c4ncccc4Cl)C[C@H]3C)nc(N3CCCC3C)n2)cc1F (stereo partly drawn) [Example 803, 4-[(2R)-4-(3-chloropyridin-2-yl)-2-methylpiperazin-1-yl]-6-(3-fluoro-4-methylphenyl)-2-(2-methylpyrrolidin-1-yl)pyrimidine]
Cc1ccc(-c2cc(N3CCN(c4ncccc4Cl)C[C@H]3C)nc(N3CCCCC3)n2)cc1F [Example 804, 4-[(2R)-4-(3-chloropyridin-2-yl)-2-methylpiperazin-1-yl]-6-(3-fluoro-4-methylphenyl)-2-piperidin-1-ylpyrimidine]
Cc1ccc(-c2cc(N3CCN(c4ncccc4Cl)C[C@H]3C)nc(N3CCCC3)n2)cc1C [Example 805, 4-[(2R)-4-(3-chloropyridin-2-yl)-2-methylpiperazin-1-yl]-6-(3,4-dimethylphenyl)-2-pyrrolidin-1-ylpyrimidine]
C[C@@H]1CN(c2ncccc2Cl)CCN1c1cc(-c2cncc(Cl)c2)nc(N2CCCC2)n1 [Example 806, 4-(5-chloropyridin-3-yl)-6-[(2R)-4-(3-chloropyridin-2-yl)-2-methylpiperazin-1-yl]-2-pyrrolidin-1-ylpyrimidine]
CC1CCCN1c1nc(-c2cncc(Cl)c2)cc(N2CCN(c3ncccc3Cl)C[C@H]2C)n1 (some centres unmarked) [Example 807]
Cc1ccc(-c2cc(N3CCN(c4ncccc4Cl)C[C@H]3C)nc(N3CCCC3C)n2)cc1C (stereo partly drawn) [Example 808, 4-[(2R)-4-(3-chloropyridin-2-yl)-2-methylpiperazin-1-yl]-6-(3,4-dimethylphenyl)-2-(2-methylpyrrolidin-1-yl)pyrimidine]
COc1ccc(-c2cc(N3CCN(c4ncccc4Cl)C[C@H]3C)nc(N3CCCC3)n2)cc1C [Example 809, 4-[(2R)-4-(3-chloropyridin-2-yl)-2-methylpiperazin-1-yl]-6-(4-methoxy-3-methylphenyl)-2-pyrrolidin-1-ylpyrimidine]
COc1ccc(-c2cc(N3CCN(c4ncccc4Cl)C[C@H]3C)nc(N3CCCC3C)n2)cc1C (stereo partly drawn) [Example 810, 4-[(2R)-4-(3-chloropyridin-2-yl)-2-methylpiperazin-1-yl]-6-(4-methoxy-3-methylphenyl)-2-(2-methylpyrrolidin-1-yl)pyrimidine]
CC(C)N(C)C1CN(c2nc(-c3ccc(F)c(Cl)c3)cc(N3CCN(c4ncccc4C(F)(F)F)CC3)n2)C1 [Example 811, 1-(4-(3-chloro-4-fluorophenyl)-6-{4-[3-(trifluoromethyl)pyridin-2-yl]piperazin-1-yl}pyrimidin-2-yl)-N-isopropyl-N-methylazetidin-3-amine]
CCOC(=O)CN(C)c1nc(-c2ccc(F)c(Cl)c2)cc(N2CCN(c3ncccc3C(F)(F)F)CC2)n1 [Example 812, ethyl N-(4-(3-chloro-4-fluorophenyl)-6-{4-[3-(trifluoromethyl)pyridin-2-yl]piperazin-1-yl}pyrimidin-2-yl)-N-methylglycinate]
[O-][n+]1ccc(-c2nc(-c3ccc(F)c(Cl)c3)cc(N3CCN(c4ncccc4C(F)(F)F)CC3)n2)cc1 [Example 813, 4-(3-chloro-4-fluorophenyl)-2-(1-oxidopyridin-4-yl)-6-{4-[3-(trifluoromethyl)pyridin-2-yl]piperazin-1-nlyl}pyrimidine]
Cc1cc(N)cnc1N1CCN(c2cc(-c3ccc(F)c(Cl)c3)nc(N3CCCC3C)n2)CC1 (centres unmarked) [Example 814, 6-{4-[6-(3-chloro-4-fluorophenyl)-2-(2-methylpyrrolidin-1-yl)pyrimidin-4-yl]piperazin-1-yl}-5-methylpyridin-3-amine]
Cc1cc(O)cnc1N1CCN(c2cc(-c3ccc(F)c(Cl)c3)nc(N3CCCC3C)n2)CC1 (centres unmarked) [Example 815, 6-{4-[6-(3-chloro-4-fluorophenyl)-2-(2-methylpyrrolidin-1-yl)pyrimidin-4-yl]piperazin-1-yl}-5-methylpyridin-3-ol]
CC(=O)Nc1cnc(N2CCN(c3cc(-c4ccc(F)c(Cl)c4)nc(N4CCCC4C)n3)CC2)c(C)c1 (centres unmarked) [Example 816, N-(6-{4-[6-(3-chloro-4-fluorophenyl)-2-(2-methylpyrrolidin-1-yl)pyrimidin-4-yl]piperazin-1-yl}-5-methylpyridin-3-yl)acetamide]
Cc1cc(NS(C)(=O)=O)cnc1N1CCN(c2cc(-c3ccc(F)c(Cl)c3)nc(N3CCCC3C)n2)CC1 (centres unmarked) [Example 817, N-(6-{4-[6-(3-chloro-4-fluorophenyl)-2-(2-methylpyrrolidin-1-yl)pyrimidin-4-yl]piperazin-1-yl}-5-methylpyridin-3-yl)methanesulfonamide]
COc1cnc(N2CCN(c3cc(-c4ccc(F)c(Cl)c4)nc(N4CCCC4C)n3)CC2)c(C)c1 (centres unmarked) [Example 818, 4-(3-chloro-4-fluorophenyl)-6-[4-(5-methoxy-3-methylpyridin-2-yl)piperazin-1-yl]-2-(2-methylpyrrolidin-1-yl)pyrimidine]
CCCN1CCN(c2nc(-c3ccc(F)c(Cl)c3)cc(N3CCN(c4ncc(N)cc4C)CC3)n2)CC1 [Example 819, 6-{4-[6-(3-chloro-4-fluorophenyl)-2-(4-propylpiperazin-1-yl)pyrimidin-4-yl]piperazin-1-yl}-5-methylpyridin-3-amine]
C[C@@H]1CN(c2nccnc2Cl)CCN1c1cc(-c2ccc(F)c(F)c2)nc(N2CCCC2)n1 [Example 820, 4-[(2R)-4-(3-chloropyrazin-2-yl)-2-methylpiperazin-1-yl]-6-(3,4-difluorophenyl)-2-pyrrolidin-1-ylpyrimidine]
CC1CCCN1c1nc(-c2ccc(F)c(F)c2)cc(N2CCN(c3nccnc3Cl)C[C@H]2C)n1 (some centres unmarked) [Example 821, 4-[4-(3-chloropyrazin-2-yl)-2-methylpiperazin-1-yl]-6-(3,4-difluorophenyl)-2-(2-methylpyrrolidin-1-yl)pyrimidine]
C[C@@H]1CN(c2nccnc2Cl)CCN1c1cc(-c2ccc(F)c(F)c2)nc(N2CCOCC2)n1 [Example 822, 4-[4-[(2R)-4-(3-chloropyrazin-2-yl)-2-methylpiperazin-1-yl]-6-(3,4-difluorophenyl)pyrimidin-2-yl]morpholine]
CC1CCCN1c1nc(-c2ccc(F)c(Cl)c2)cc(N2CCN(c3ncc(C(=O)N(C)C)cc3Cl)CC2)n1 (centres unmarked) [Example 824, 5-chloro-6-{4-[6-(3-chloro-4-fluorophenyl)-2-(2-methylpyrrolidin-1-yl)pyrimidin-4-yl]piperazin-1-yl}-N,N-dimethylnicotinamide]
CNC(=O)c1cnc(N2CCN(c3cc(-c4ccc(F)c(Cl)c4)nc(N4CCCC4C)n3)CC2)c(Cl)c1 (centres unmarked) [Example 825, 5-chloro-6-{4-[6-(3-chloro-4-fluorophenyl)-2-(2-methylpyrrolidin-1-yl)pyrimidin-4-yl]piperazin-1-yl}-N-methylnicotinamide]
C[C@@H]1CN(c2ccncc2Cl)CCN1c1cc(-c2ccc(F)c(F)c2)nc(Cl)n1 [Example 826, 2-chloro-4-[(2R)-4-(3-chloropyridin-4-yl)-2-methylpiperazin-1-yl]-6-(3,4-difluorophenyl)pyrimidine]
CC1CCCN1c1nc(-c2ccc(F)c(F)c2)cc(N2CCN(c3ccncc3Cl)C[C@H]2C)n1 (some centres unmarked) [Example 828, 4-[4-(3-chloropyridin-4-yl)-2-methylpiperazin-1-yl]-6-(3,4-difluorophenyl)-2-(2-methylpyrrolidin-1-yl)pyrimidine]
C[C@@H]1CN(c2ccncc2Cl)CCN1c1cc(-c2ccc(F)c(F)c2)nc(N2CCCC2)n1 [Example 829, 4-[(2R)-4-(3-chloropyridin-4-yl)-2-methylpiperazin-1-yl]-6-(3,4-difluorophenyl)-2-pyrrolidin-1-ylpyrimidine]
Fc1ccc(-c2cc(N3CCN(c4ncccc4C(F)(F)F)CC3)nc(-c3ccccn3)n2)cc1Cl [Example 830, 4-(3-chloro-4-fluorophenyl)-2-pyridin-2-yl-6-{4-[3-(trifluoromethyl)pyridin-2-yl]piperazin-1-yl}pyrimidine]
CCCN1CC[C@H](N(C)c2nc(-c3ccc(F)c(C)c3)cc(N3CCN(c4ncccc4C(F)(F)F)CC3)n2)C1 [Example 831, 4-(4-fluoro-3-methylphenyl)-N-methyl-N-[(3S)-1-propylpyrrolidin-3-yl]-6-{4-[3-(trifluoromethyl)pyridin-2-yl]piperazin-1-yl}pyrimidin-2-amine]
